Test results taken from patent US8846710B2, “Method of preferentially inducing the biosynthesis of interferon” (3M Innovative Properties Company, priority 2005, dated 2014).

What was measured:
interferon (α) (IFN-α) = test: Cytokine induction in human cells: IFN-α secreted by PBMC into culture media (ELISA); assay type: cell-based; settings: for minimal effective concentration / Maximal Response IFN / Minimum Effective Concentration IFN: human PBMC; for minimal effective concentration: lowest tested concentration inducing IFN-α over usually 20 pg/mL, median where more than one experiment, read-out: Minimum Effective Concentration (μM) IFN; for Maximal Response (pg/mL) IFN: maximal response in dose response curve, median; for Maximal Response IFN / Minimum Effective Concentration IFN: median where tested in more than one experiment
Summary of the method: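 IFN-α secreted by density-gradient-isolated PBMC (final 2×10^6 cells/mL) was quantified by ELISA after 18–24 h compound exposure at 37 °C, typically 30-0.014 μM in 3-fold steps with ≤1% DMSO. Readings corrected for background and reference-compound variability; lowest concentration above usually 20 pg/mL reported, plus maximal response (pg/mL).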

[1] = tested on: tumor necrosis factor (α) (TNF-α); test: Cytokine induction in human cells: TNF-α secreted by PBMC into culture media (ORIGEN M-Series immunoassay); assay type: cell-based; parameters: key to Maximal Response (pg/mL) TNF / Maximal Response TNF: If any negative values result from background subtraction, the reading is reported as “*”, and is noted as not reliably detectable; settings: for minimal effective concentration / Minimum Effective Concentration TNF / Maximal Response TNF: human PBMC; for minimal effective concentration: lowest tested concentration inducing TNF-α over usually 40 pg/mL, median where more than one experiment, read-out: Minimum Effective Concentration (μM) TNF; for Maximal Response (pg/mL) TNF: maximal response in dose response curve; for Maximal Response (pg/mL) TNF / Maximal Response TNF: median; for Minimum Effective Concentration TNF: median where tested in more than one experiment
Summary of the method: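 Secreted TNF-α (pg/mL) was quantified by ORIGEN M-Series immunoassay after 18 to 24 hours culture at 37° C of human PBMC (2×10^6 cells/mL final) with test compound (usually 30-0.014 μM, 3-fold series, DMSO ≤1%). Values were corrected for DMSO or experimental background and a reference-compound ratio, giving a minimum effective concentration.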

[2] = Table 10, * = below experimental background level
[3] = Table 11, * = TNF below experimental background of 40 pg/mL
[4] = Table 12, * = below the experimental background of 40 pg/mL
[5] = Table 8, background-subtracted, reference-adjusted

Row | SMILES | Maximal Response IFN (interferon (α) (IFN-α); Table 11) | Minimum Effective Concentration IFN (interferon (α) (IFN-α); Table 11) | Minimum Effective Concentration TNF ([1]; Table 11) | Maximal Response TNF [1, 3] | also measured
1 | CC(C)(O)Cn1c(CO)nc2c(N)nc3cc(OCc4cscn4)ccc3c21 [Example 187, 1-[4-Amino-2-hydroxymethyl-7-(thiazol-4-ylmethoxy)-1H-imidazo[4,5-c]quinolin-1-yl]-2-methylpropan-2-ol] | – | – | – | – | melting point: 260 to 262 °C
2 | CC(C)[C@H](N)C(=O)OCc1nc2c(N)nc3ccccc3c2n1CC(C)(C)O [Example 636, [4-Amino-1-(2-hydroxy-2-methylpropyl)-1H-imidazo[4,5-c]quinolin-2-yl]methyl L-valinate] | – | – | – | – | melting point: 190 to 192 °C
3 | CC(=O)OCc1nc2c(N)nc3ccccc3c2n1CC(C)(C)O [Example 635, [4-Amino-1-(2-hydroxy-2-methylpropyl)-1H-imidazo[4,5-c]quinolin-2-yl]methyl acetate] | – | – | – | – | melting point: 203 to 205 °C
4 | CC(=O)OCCc1nc2c(N)nc3ccccc3c2n1CC(C)C [Example 634, 2-(4-Amino-1-isobutyl-1H-imidazo[4,5-c]quinolin-2-yl)ethyl acetate] | – | – | – | – | melting point: 187 to 189 °C
5 | CCOCc1nc2c(N)nc3cc(-c4cccc(C)c4)ccc3c2n1CC(C)(C)O [Analog 41] | – | – | – | – | minimal effective concentration (interferon (α) (IFN-α); Table 10): 0.014 µM; Maximal Response (pg/mL) IFN (interferon (α) (IFN-α); [2]): 541 pg/mL; minimal effective concentration ([1]; Table 10): 0.12 µM; Maximal Response (pg/mL) TNF [1, 2]: 10184 pg/mL
6 | CCOCc1nc2c(N)nc3ccccc3c2n1CCCNC(=O)N1CCOCC1 [Analog 88] | 6670 pg/mL | 0.12 µM | 1.11 µM | 1379 pg/mL | –
7 | CS(=O)(=O)NCCCCn1c(CO)nc2c(N)nc3ccccc3c21 [Example 368, N-[4-(4-amino-2-hydroxymethyl-1H-imidazo[4,5-c]quinolin-1-yl)butyl]methanesulfonamide] | 7220 pg/mL | – | – | * | –
8 | CCOCc1nc2c(N)nc3ccccc3c2n1CCCNS(C)(=O)=O [Analog 61] | 1338 pg/mL | 0.37 µM | 10 µM | 463 pg/mL | –
9 | NCCCn1c(CCO)nc2c(N)nc3ccccc3c21 [Example 120] | 5636 pg/mL | 3.33 µM | >30 µM | * | –
10 | COCCc1nc2c(N)nc3ccccc3c2n1CCCCNS(=O)(=O)c1ccc(F)cc1 [Analog 113] | 6032 pg/mL | 0.014 µM | 0.04 µM | 3786 pg/mL | –
11 | CC(C)(Cn1c(CO)nc2c(N)nc3cccnc3c21)NS(C)(=O)=O [Example 144, N-[2-(4-Amino-2-hydroxymethyl-1H-imidazo[4,5-c][1,5]naphthyridin-1-yl)-1,1-dimethylethyl]methanesulfonamide] | – | – | – | – | Maximal Response IFN (interferon (α) (IFN-α); Table 12): 1914 pg/mL; Maximal Response TNF [1, 4]: 170 pg/mL
12 | CCc1nc2c(N)nc3cccnc3c2n1CC(C)(C)O [Analog 127, 1-(4-amino-2-ethyl-1H-imidazo[4,5-c][1,5]naphthyridin-1-yl)-2-methylpropan-2-ol] | – | – | – | – | Maximal Response IFN (interferon (α) (IFN-α); Table 12): 2150 pg/mL; Maximal Response TNF [1, 4]: 3863 pg/mL
13 | CCOCc1nc2c(N)nc3cc(-c4cccc(C(=O)N5CCOCC5)c4)ccc3c2n1CC1CCCCC1 [Analog 46] | – | – | – | – | minimal effective concentration (interferon (α) (IFN-α); Table 10): 0.014 µM; Maximal Response (pg/mL) IFN (interferon (α) (IFN-α); [2]): 815 pg/mL; minimal effective concentration ([1]; Table 10): 0.37 µM; Maximal Response (pg/mL) TNF [1, 2]: 1054 pg/mL
14 | CCc1nc2c(N)nc3ccccc3c2n1CCCCCS(C)(=O)=O [Analog 74] | 1062 pg/mL | 0.12 µM | 1.11 µM | 1545 pg/mL | –
15 | CCCc1nc2c(N)nc3ccccc3c2n1CCCCCS(C)(=O)=O [Analog 75] | 828 pg/mL | 0.12 µM | 1.11 µM | 848 pg/mL | –
16 | CCOCc1nc2c(N)nc3ccccc3c2n1CCNC(=O)NC(C)C [Analog 125] | 2045 pg/mL | 0.37 µM | 10 µM | 7512 pg/mL | –
17 | CCOCc1nc2c(N)nc3cc(-c4ccc(C)cc4)ccc3c2n1CC(C)(C)O [Analog 42] | – | – | – | – | minimal effective concentration (interferon (α) (IFN-α); Table 10): 0.12 µM; Maximal Response (pg/mL) IFN (interferon (α) (IFN-α); [2]): 650 pg/mL; minimal effective concentration ([1]; Table 10): 0.12 µM; Maximal Response (pg/mL) TNF [1, 2]: 4456 pg/mL
18 | CC(C)(Cn1c(CO)nc2c(N)nc3ccccc3c21)CS(C)(=O)=O [Example 364, {4-Amino-1-[2,2-dimethyl-3-(methylsulfonyl)propyl]-1H-imidazo[4,5-c]quinolin-2-yl}methanol] | 5343 pg/mL | – | – | 164 pg/mL | –
19 | CC(C)(O)Cn1c(CCO)nc2c(N)nc3cccnc3c21 [Example 149, 1-[4-Amino-2-(2-hydroxyethyl)-1H-imidazo[4,5-c][1,5]naphthyridin-1-yl]-2-methylpropan-2-ol] | – | – | – | – | Maximal Response (pg/mL) IFN (interferon (α) (IFN-α); [5]): 1849 pg/mL; Maximal Response IFN (interferon (α) (IFN-α); Table 12): 2063 pg/mL; Maximal Response (pg/mL) TNF [1, 5]: 342 pg/mL; Maximal Response TNF [1, 4]: 331 pg/mL
20 | Cc1nc2c(N)nc3ccccc3c2n1CCCNC(=O)c1ccccc1 [Analog 101] | 571 pg/mL | 1.11 µM | 3.33 µM | 156 pg/mL | –
21 | Cc1nc2c(N)nc3ccccc3c2n1CC(C)(C)CNS(C)(=O)=O [Analog 63] | 1019 pg/mL | 0.37 µM | 10 µM | 805 pg/mL | –
